Active and inactive are the calls of the source. The rule behind the calls is not given here.
Each molecule was assayed on Human alphaherpesvirus 1 (assay: Evaluated for antiviral activity against cutaneous HSV-1 C42 infections in guinea pig; Active).
Assay type: functional, organism-based

Question: Which Effect does the source give for COP(=O)(O)C(=O)Oc1ccccc1 here?
Answer: Active

Question: For O=C(Oc1ccccc1)P(=O)(O)Oc1ccccc1, which Effect is on record?
Answer: Active

Question: How did the Effect turn out when COP(=O)(O)C(=O)O was run?
Answer: Active

Question: With O=C(Oc1ccc(Cl)c(Cl)c1)P(=O)(O)O as the molecule, how does the Effect read?
Answer: Active

Question: With Cc1ccc(OP(=O)(O)C(=O)Oc2ccccc2)cc1 as the molecule, how does the Effect read?
Answer: Active

Question: With O=C(Oc1ccccc1)P(=O)(O)O as the molecule, how does the Effect read?
Answer: Active

Question: Cc1ccc(OP(=O)(Oc2ccc(C)cc2)C(=O)Oc2ccccc2)cc1 was tested. Which Effect did it give?
Answer: Active

Question: With O=C(Oc1ccccc1)P(=O)(Oc1ccccc1)Oc1ccccc1 as the molecule, how does the Effect read?
Answer: Active

Question: How did the Effect turn out when O=C(O)P(=O)(O)O was run?
Answer: Active

Question: CCOP(=O)(O)C(=O)Oc1ccc(OC)cc1 was tested. Which Effect did it give?
Answer: Active

Question: With CCOP(=O)(Oc1ccc(Cl)cc1)C(=O)Oc1ccccc1 (configuration not stated) as the molecule, how does the Effect read?
Answer: Active

Question: Which Effect does the source give for CCOP(=O)(O)C(=O)Oc1ccc(Cl)cc1 here?
Answer: Active

Question: Cc1ccc(OP(=O)(O)C(=O)O)cc1 was tested. Which Effect did it give?
Answer: Active

Question: Which Effect does the source give for CCOC(=O)c1ccc(OC(=O)P(=O)(O)O)cc1 here?
Answer: Active

Question: How did the Effect turn out when CCOP(=O)(O)C(=O)O was run?
Answer: Active

Question: Which Effect does the source give for O=C(Oc1ccc(Cl)cc1)P(=O)(O)O here?
Answer: Active

Question: O=C(O)P(=O)(O)Oc1ccccc1 was tested. Which Effect did it give?
Answer: Active

Question: With COc1ccc(OP(=O)(O)C(=O)O)cc1 as the molecule, how does the Effect read?
Answer: Active

Question: O=C(O)P(=O)(O)Oc1ccc2c(c1)CCC2 was tested. Which Effect did it give?
Answer: Active

Question: Which Effect does the source give for COc1ccc(OC(=O)P(=O)(O)O)cc1 here?
Answer: Active

Question: For Cc1cccc(C)c1OP(=O)(O)C(=O)O, which Effect is on record?
Answer: Active

Question: Which Effect does the source give for CCOP(=O)(Oc1ccc(OC)cc1)C(=O)Oc1ccccc1 (configuration not stated) here?
Answer: Active

Question: How did the Effect turn out when Cc1ccc(OC(=O)P(=O)(O)O)cc1 was run?
Answer: Active

Question: How did the Effect turn out when O=C(O)P(=O)(O)OC12CC3CC(CC(C3)C1)C2 was run?
Answer: Active

Each molecule was assayed on Human alphaherpesvirus 1 (assay: Evaluated for antiviral activity against cutaneous HSV-1 C42 infections in guinea pig; Not active).
Assay type: functional, organism-based

Question: COP(=O)(OC)C(=O)OCC1CCCC1 was tested. Which Effect did it give?
Answer: inactive

Question: Which Effect does the source give for COC(=O)P(=O)(OC)OC12CC3CC(CC(C3)C1)C2 (configuration not stated) here?
Answer: inactive

Question: Which Effect does the source give for COP(=O)(O)C(=O)OCc1ccccc1 here?
Answer: inactive

Question: How did the Effect turn out when CCOP(=O)(OCC)C(=O)Oc1ccc(Cl)cc1 was run?
Answer: inactive

Question: For O=C(OC1CCCCC1)P(=O)(O)O, which Effect is on record?
Answer: inactive

Question: O=C(OCC1CCCC1)P(=O)(O)O was tested. Which Effect did it give?
Answer: inactive

Question: How did the Effect turn out when CCOC(=O)c1ccc(OC(=O)P(=O)(OC)OC)cc1 was run?
Answer: inactive

Question: For CCOC(=O)c1ccc(OC(=O)P(=O)(OCC)OCC)cc1, which Effect is on record?
Answer: inactive

Question: With CC(C)OC(=O)P(=O)(O)O as the molecule, how does the Effect read?
Answer: inactive

Question: COP(=O)(OC)C(=O)OCc1ccccc1 was tested. Which Effect did it give?
Answer: inactive

Question: Which Effect does the source give for COP(=O)(OC)C(=O)Oc1ccccc1 here?
Answer: inactive

Question: For CCOP(=O)(OCC)C(=O)Oc1ccc(OC)cc1, which Effect is on record?
Answer: inactive

Question: Which Effect does the source give for CC(C)OP(=O)(OC(C)C)C(=O)Oc1ccc([N+](=O)[O-])cc1 here?
Answer: inactive

Question: CCCCOP(=O)(O)C(=O)OC was tested. Which Effect did it give?
Answer: inactive

Question: For CCOP(=O)(Oc1c(C)cccc1C)C(=O)OC (configuration not stated), which Effect is on record?
Answer: inactive

Question: How did the Effect turn out when O=C(OCc1ccccc1)P(=O)(O)O was run?
Answer: inactive

Question: How did the Effect turn out when COP(=O)(OC)C(=O)OC1CCCCC1 was run?
Answer: inactive

Question: How did the Effect turn out when COP(=O)(OC)C(=O)OC(C)C was run?
Answer: inactive

Question: With CCOC(=O)P(=O)(O)OCC as the molecule, how does the Effect read?
Answer: inactive

Question: With COC(=O)P(=O)(OC)Oc1ccc(C(C)=O)cc1 (configuration not stated) as the molecule, how does the Effect read?
Answer: inactive

Question: Which Effect does the source give for CCCCOC(=O)P(=O)(OC)OC here?
Answer: inactive

Question: How did the Effect turn out when CCOP(=O)(Oc1ccc2c(c1)CCC2)C(=O)OC (configuration not stated) was run?
Answer: inactive

Question: Which Effect does the source give for CCCCOC(=O)P(=O)(O)O here?
Answer: inactive

Question: With COP(=O)(OC)C(=O)Oc1ccc(C)cc1 as the molecule, how does the Effect read?
Answer: inactive

Question: Which Effect does the source give for CCOC(=O)P(=O)(O)O here?
Answer: inactive

Question: With CCOC(=O)P(=O)(O)Oc1ccccc1 as the molecule, how does the Effect read?
Answer: inactive

Question: With COP(=O)(OC)C(=O)Oc1ccc(Cl)c(Cl)c1 as the molecule, how does the Effect read?
Answer: inactive

Question: For CCCCOP(=O)(OCCCC)C(=O)OC, which Effect is on record?
Answer: inactive

Question: How did the Effect turn out when COC(=O)P(=O)(OC(C)C)OC(C)C was run?
Answer: inactive

Question: With COC(=O)P(=O)(O)Oc1ccc2c(c1)CCC2 as the molecule, how does the Effect read?
Answer: inactive

Question: For COP(=O)(OC)C(=O)Oc1ccc([N+](=O)[O-])cc1, which Effect is on record?
Answer: inactive

Question: Which Effect does the source give for COC(=O)P(=O)(O)Oc1c(C)cccc1C here?
Answer: inactive

Question: For CCOP(=O)(Oc1ccc(C(C)=O)cc1)C(=O)OC (configuration not stated), which Effect is on record?
Answer: inactive

Reference: ChEMBL document CHEMBL1122332, “Synthesis of esters of phosphonoformic acid and their antiherpes activity” (J Med Chem, 1983)
